According to patent US11911442B2, “Use of soluble pro(renin) receptor to treat metabolic disorders and related conditions” (priority 2017, dated 2024):

Experiments:
[1] = system: C57BL6 mice; test: TO901317-induced diabetes insipidus in C57/BL6 mice; type: in vivo, mouse
Procedure: FIGS. 9A-9I show an initial characterization of diuretic and PRR-inhibitory actions of TO901317 in vivo and in vitro. […] The mice receiving vehicle treatment served as a control. At the end of experiment, 24-h urine collection was performed, followed by analysis of urinary sPRR excretion by ELISA and renal PRR expression by immunoblotting. (A) Urine output (n=30 mice per group). (B) Urinary osmolality (n=15 mice per group). (C) Immunoblotting analysis of renal PRR expression (n=15 mice per group). (D) Densitometric analysis of the immunoblot in C. (E) ELISA analysis of urinary sPRR (n=8 mice per group). (F-I) The effect of TO901317 on PRR expression in cultured CD cells. mpkCCD cells were exposed to vehicle or 10 μM TO901317 for 24 h. The cell lysates were subjected to immunoblotting analysis of PRR protein expression, and the medium was assayed for sPRR concentration by using ELISA and normalized by protein content. In a separate experiment, the cells were transfected with a PRR-luciferase construct, allowed to grown to confluence, and then were treated with vehicle or 10 μM TO901317 for 24 h. (F) Immunoblotting analysis of PRR (n=15 per group). (G) Densitometric analysis of the immunoblot in […]. (H) ELISA analysis of medium sPRR (n=10 per group). (I) The luciferase assay (n=5 per group).
(A) Urine output (n=8 mice per group). (B) Water intake (n=8 mice per group). (C) Water balance (n=8 mice per group). (D) Urinary osmolality (n=8 mice per group). (E) Het (n=8 mice per group).
AQP2 expression was analyzed by immunoblotting and immunostaining. Urinary renin activity was determined by measuring AngI generation, and urinary prorenin/renin concentration was determined by ELISA. (A) Immunoblotting analysis of AQP2 expression (n=15 mice per group). (B) Densitometric analysis of the immunoblots in A. (C) Urinary renin activity (n=8 mice per group). (D) Urinary prorenin/renin excretion (n=8 mice per group). (E) Schematic illustration of the mechanism by which the LXR agonist TO091317 (TO) suppresses PRR transcription and induces DI. LXRs bound to TO091317 function as a […] repressor for the PRR gene, leading to a reduced PRR/sPRR level that decreases AQP2 expression, ultimately causing DI.
Besides their well-recognized role in regulating lipid and glucose metabolism, LXRs are potential regulators of the RAS and fluid balance. […] In the initial experiment, the effects of the LXR agonist TO901317 on fluid homeostasis and on renal PRR and urinary renin levels were examined in mice. A 7-d treatment with TO901317 in C57BL6 mice reduced body weight (32.36±0.63 vs. 28.61±0.36 g, P<0.05) and food intake (4.08±0.19 vs. 3.54±0.15 g, P<0.05), although to a lesser extent. […] The expression of renal PRR protein and the excretion of urinary sPRR were examined by immunoblotting and ELISA, respectively.
In the subsequent experiment, a more detailed analysis of TO901317-induced DI was performed and the causal role of suppressed renal PRR was further examined in this phenomenon. This experiment comprised three groups: control, TO901317-treated, and TO901317+sPRRHis-treated mice. […] Of note, water balance was determined by subtracting urine volume from water intake. AQP2, a major water channel on the apical membrane of the CD, plays a key role in determining urine-concentrating capability. […] ELISA was also performed to determine the prorenin/renin concentration in the urine. Although urinary prorenin/renin excretion was suppressed by TO901317, it was unaffected by sPRRHis (FIG. 11D). […] FIG. 11E provides a schematic illustration of the mechanism by which TO901317 induces DI. Upon binding to TO901317, LXRs function as a transcriptional repressor to inactivate PRR transcription. The reduced PRR/sPRR levels down-regulate AQP2 expression, leading to DI.
Male 10- to 12-wk-old SD rats and C57BL6 mice were purchased from Charles River Laboratories and the Jackson Laboratory, respectively. All animals […] 50 mg kg body weight-1·d-1. […]

[2] = system: PRR; test: PRR protein expression and sPRR release in mpkCCD cells; type: cell-based, murine; conditions: 10 μM, 24 h
Procedure: The effect of […] on PRR expression was tested in […] cells. These cells were grown to confluence in six-well plates. After 12-h serum deprivation, the cells were treated with vehicle or 10 μM TO901317 for 24 h and then were harvested for analysis of PRR expression and sPRR release. In a separate experiment, […] cells at 50% density were transiently transfected with a construct containing the luciferase gene under the control of the 2,016-bp 5' flanking region of the PRR gene. Upon confluence, the transfected cells were treated for 24 h with vehicle or 10 μM TO901317 and then were harvested for analysis of luciferase activity. Urinary or medium sPRR was determined using a commercially sPRR enzyme immunoassay (EIA) kit (catalog no. JP27782; Immuno-Biological Laboratories) according to the manufacturer's instructions. Renal tissues were lysed and subsequently sonicated. Protein concentrations were determined using Coomassie reagent. Forty micrograms of protein from each sample were denatured in boiling water, separated by SDS/PAGE, and transferred onto nitrocellulose membranes. Blots were blocked 1 h with 5% nonfat dry milk in Tris-buffered saline (TBS), followed by overnight incubation with primary antibody. […] The blots were quantitated by using Image-Pro Plus (Media Cybernetics). […]

[3] = system: pGL3-PRR; test: PRR-luciferase (pGL3-PRR) reporter assay in mpkCCD cells; type: cell-based, murine; conditions: transfected mpkCCD cells, 10 μM, 24 h
Procedure: The effect of […] on PRR expression was tested in […] cells. These cells were grown to confluence in six-well plates. After 12-h serum deprivation, the cells were treated with vehicle or 10 μM TO901317 for 24 h and then were harvested for analysis of PRR expression and sPRR release. In a separate experiment, […] cells at 50% density were transiently transfected with a construct containing the luciferase gene under the control of the 2,016-bp 5' flanking region of the PRR gene. Upon confluence, the transfected cells were treated for 24 h with vehicle or 10 μM TO901317 and then were harvested for analysis of luciferase activity. Genomic DNA was extracted from rat tail using a Tissue DNA kit ([…]-01; Promega). A 2,016-bp fragment of the 5' flanking region of the PRR gene (GenBank accession no. NM_001007091; 1,941±75 bp) was amplified from the rat genomic DNA by PCR and subcloned to the pGL3-Basic reporter vector (Promega) using NheI and BgIII restriction sites; this construct was termed “pGL3-PRR.” A 2,084-bp fragment of the 5' flanking region of the AQP2 gene (GenBank accession no. […] Qiagen). […] The vehicle-treated group served as a control. The luciferase activities were measured using a luciferase assay system (Promega), and luminescence was detected by using an illuminometer (BMG FLUOstar OPTIMA).

SMILES: O=S(=O)(c1ccccc1)N(CC(F)(F)F)c1ccc(C(O)(C(F)(F)F)C(F)(F)F)cc1 [TO901317]
- urine output, water intake, water balance, urinary osmolality, Hct ([1]; C57/BL6 mice, TO901317 alone, 7 d): polyuria, polydipsia, decreased water balance, hypoosmotic urine, and plasma volume contraction
- urinary osmolality ([1]; C57BL6 mice, 7-d treatment): hypoosmotic urine
- urine output ([1]; C57BL6 mice, 7-d treatment): severe polyuria
- urinary sPRR excretion ([1]; C57BL6 mice, 7-d treatment, ELISA): suppressed consistently
- renal PRR expression ([1]; C57BL6 mice, 7-d treatment, immunoblotting): suppressed consistently
- food intake ([1]; C57BL6 mice, 7-d treatment, control 4.08±0.19, P<0.05): 3.54 ± 0.15 g
- body weight ([1]; C57BL6 mice, 7-d treatment, control 32.36±0.63, P<0.05): 28.61 ± 0.36 g
- urinary renin activity (generation of AngI) ([1]; TO901317 alone, 7 d): suppressed
- urinary prorenin/renin excretion ([1]; TO901317 alone, 7 d, ELISA): suppressed
- renal AQP2 expression ([1]; TO901317 alone, 7 d, immunoblotting): significantly reduced
- reduction of medium sPRR ([2]; ELISA): 60%
- reduction of PRR protein expression ([2]; immunoblotting): 85%
- suppression of luciferase activity (pGL3-PRR) [3]: 76%
